Experimental data reported in the NIST ThermoML archive (doi:10.1021/je0497247).

Settings: 100 kPa, Liquid; for viscosity: Capillary tube (Ostwald / Ubbelohde) method; for mass density: Pycnometric method

O=C(O)c1ccccc1 [benzoic acid]
Settings	mass density [kg/m3]	thermal conductivity [W/m/K]	viscosity [mPa·s]
400.3 K	–	–	1.372
401.3 K	1089.5	–	–
406.8 K	–	0.139	–
409.3 K	–	–	1.238
410.3 K	1080.2	–	–
418.3 K	–	–	1.117
419.3 K	1069.8	–	–
424.4 K	–	0.137	–
427.2 K	–	–	1.026
428.2 K	1060.2	–	–
432.1 K	1055	–	0.953
444.9 K	–	0.134	–
447.1 K	1036	–	0.802
465.1 K	–	0.132	–
